Test results: publication PMC11696576, “Next generation thiazolyl ketone inhibitors of cytosolic phospholipase A2 α for targeted cancer therapy” (Nature Communications, 2025)
Values joined by “and” are separate entries in the source; they are usually repeats but may differ in a detail not shown here. Equal values may be shown once. Read-outs that look alike come from different tables or passages of the source.

System: panel of 66 cancer cell lines
Assay: cancer cell line screen, proliferation assay (ATPlite, 72 h)
Format: cell-based, human
Settings: for IC50: Homo sapiens, read-out: IC50; for raw signal, dose-response (Figure S7a): rep1, rep2, listed as AVX420
From the text: Targeting specific molecular vulnerabilities in cancer is considered a key approach to reducing the adverse effects of chemotherapy. However, the events that govern the susceptibility to suppression of the cPLA2α in cancer remain largely unexplored. We therefore took the approach of screening the antiproliferative activity of AVX420 in a panel of 66 cancer cell lines (hereafter referred to as the cancer cell line screen or CCLS) to allow us to investigate molecular and genetic vulnerabilities to the drug.
Screening of compound activities in 66 cancer cell lines was carried out at the Netherlands Translation Research Center. Briefly, proliferation assays were performed 72 h after compound addition using ATPlite 1step reagent (Perkin Elmer). IC50s calculated by non-linear regression analysis were used as a measure of compound activity for investigating associations with genetic factors. A complete description of the laboratory and data analysis methods are available in the Supplementary Information file (Supplemental Methods: Cancer Cell Line Screening).
Cancer cell line screening
Cell proliferation assays
All cell lines were from the American Type Culture Collection (ATCC) Manassas, Virginia (US) and maintained under ATCC-recommended protocols and within 9 pas- […]
DMSO at -80°C until one hour before use. Cells exposed within one hour after thaw-ing of the compound stocks. Final compound concentration range in the assay was 10 […]
cated by supplier. Compounds were dissolved in 100 % DMSO and stored at room temperature. Final concentration of the reference compounds in the assay was 3.16x10-5 M to 3.16x10-9 M. The final DMSO concentration during incubation was […]
Cell lines were plated in Advanced RPMI 1640 (Gibco, ref 12633-012) cell culture medium, containing 1% Glutamax solution (Gibco, ref 35050-038), 0.4% Pen Strep solution (Gibco, ref 15140-122) and bovine serum. The cPLA2α inhibitors were tested in 0.5% bovine serum (HyClone, ref SH30072.03) with the exception of769-P, A-204, BT-549, SR, T98G, which were tested in the presence of 1.0% serum and A-704 and LNCaP FGS, which were tested in the in the presence of 10% serum. Reference com-pounds were all tested in the presence of 10% bovine serum.
Cells were dispensed in a 384-well plate, at a concentration of 200 - 3200 cells per well, depending on the cell line, in 45 μL medium. Plated cells were incubated in a humidified atmosphere of 5% CO2 at 37 °C. After 24 hours, 5 μL of compound dilu-tion was added and plates were further incubated for another 72 hours. After 72 hours, 25 μL of ATPlite 1Step™ (PerkinElmer) solution was added to each well, and subse-quently shaken for 2 minutes. After 10 minutes of incubation in the dark, the lumines-cence was recorded on an Envision multimode reader (PerkinElmer).
Cell growth control. The cellular doubling times of all cell lines are calculated from the t = 0 hours and t = 72 hours growth signals of the untreated cells. If the doubling time is out of specification (0.5 – 2.0 times deviating from historic average) the assay […]
IC50s were calculated by non-linear regression using IDBS XLfit 5. The percentage growth after 72h (%-growth) was calculated as follows: 100% x (luminescence t = 72h / luminescence untreated,t=72h). This was fitted to the 10log compound concentration (conc) by a 4-parameter logistics curve: %-growth = bottom + (top – bottom) / (1+ 10(logIC50 – conc)*hill)), where hill is the Hill-coefficient, and bottom and top the asymptotic mini-mum and maximum cell growth that the compound allows in that assay.
All analysis were performed in the statistical software package R and visualized using GraphPad Prism version 10.0 .0

## CCCCCCCOc1ccc(OCC(=O)c2nc(C(=O)OC)cs2)cc1 [GK420]
SJCRH30
  IC50: 16.6 µM
SK-N-AS
  IC50: 14.2 µM
SK-N-FI
  IC50: 20 µM
SNU-C2B
  IC50: 19.3 µM
SR
  IC50: 12.5 µM
SUP-T1, SUP-T1
  IC50: 17.9 µM
SW48, SW48
  IC50: 22.6 µM
SW480, SW480
  IC50: 14.3 µM
SW948, SW948
  IC50: 21.1 µM
SW-620, SW620
  IC50: 20 µM
T98G
  IC50: 42.4 µM
T-24, T24
  IC50: 14.7 µM
TT
  IC50: 27.7 µM
U2OS, U-2 OS
  IC50: 8.01 µM
U-87 MG
  IC50: 20.3 µM
VA-ES-BJ
  IC50: 23 µM
Hs578T, breast
  pIC50: 4,834
J82, urinary_tract
  pIC50: 4,716
Jurkat E6.1, Log10 M -5
  raw signal, dose-response (Figure S7a): 18200 and 21347
Jurkat E6.1, Log10 M -5.5
  raw signal, dose-response (Figure S7a): 21213 and 30520
Jurkat E6.1, Log10 M -6.5
  raw signal, dose-response (Figure S7a): 2114520 and 2235427
Jurkat E6.1, Log10 M -7
  raw signal, dose-response (Figure S7a): 2341173 and 2551267
Jurkat E6.1, Log10 M -7.5
  raw signal, dose-response (Figure S7a): 2392960 and 2321813
Jurkat E6.1, Log10 M -8
  raw signal, dose-response (Figure S7a): 2356933 and 2578573
Jurkat, blood
  pIC50: 6,245
K562, blood
  pIC50: 4,814
K562, Log10 M -4
  raw signal, dose-response (Figure S7a): 74307 and 48600
K562, Log10 M -4.5
  raw signal, dose-response (Figure S7a): 1190933 and 1527307
K562, Log10 M -5
  raw signal, dose-response (Figure S7a): 13304880 and 13536973
K562, Log10 M -5.5
  raw signal, dose-response (Figure S7a): 15252080 and 16813307
KU812, blood
  pIC50: 5,039
KU812, Log10 M -4
  raw signal, dose-response (Figure S7a): 2867 and 5600
KU812, Log10 M -4.5
  raw signal, dose-response (Figure S7a): 66600 and 77573
KU812, Log10 M -5.5
  raw signal, dose-response (Figure S7a): 3841840 and 3310707
KU812, Log10 M -6
  raw signal, dose-response (Figure S7a): 3516360 and 3607827
KU812, Log10 M -6.5
  raw signal, dose-response (Figure S7a): 3576653 and 3459747
KU812, Log10 M -7
  raw signal, dose-response (Figure S7a): 3573240 and 3479493
KU812, Log10 M -7.5
  raw signal, dose-response (Figure S7a): 3396627 and 3395373
KU812, Log10 M -8
  raw signal, dose-response (Figure S7a): 3660107 and 3329680
LoVo, large_intestine
  pIC50: 4,781
MCF7, breast
  pIC50: 4,833
MG63, bone
  pIC50: 4,644
MIAPaCa2, pancreas
  pIC50: 4,884
MOLT-4, Log10 M -4
  raw signal, dose-response (Figure S7a): 6187 and 5813
MOLT-4, Log10 M -5
  raw signal, dose-response (Figure S7a): 64080 and 125733
MOLT-4, Log10 M -5.5
  raw signal, dose-response (Figure S7a): 4862747 and 5232987
MOLT-4, Log10 M -6
  raw signal, dose-response (Figure S7a): 6801747 and 6267067
MOLT-4, Log10 M -6.5
  raw signal, dose-response (Figure S7a): 7366227 and 6477733
MOLT-4, Log10 M -7
  raw signal, dose-response (Figure S7a): 6306707 and 6935720
MOLT-4, Log10 M -7.5
  raw signal, dose-response (Figure S7a): 6661907 and 6660467
MOLT-4, Log10 M -8
  raw signal, dose-response (Figure S7a): 6315747 and 6363187
MeWo, skin
  pIC50: 4,711
NCIH82, lung
  pIC50: 5,315
NCIH460, lung
  pIC50: 4,489
RPMI7951, skin
  pIC50: 4,852
RT4, urinary_tract
  pIC50: 4,477
SHP77, lung
  pIC50: 4,861
SKNAS, peripheral_nervous_system
  pIC50: 4,847
SKNFI, peripheral_nervous_system
  pIC50: 4,698
SR, Log10 M -4
  raw signal, dose-response (Figure S7a): 11267 and 10080
SR, Log10 M -4.5
  raw signal, dose-response (Figure S7a): 14987 and 22200
SR, Log10 M -5
  raw signal, dose-response (Figure S7a): 2171560 and 2105733
SR, Log10 M -5.5
  raw signal, dose-response (Figure S7a): 2501520 and 2976000
SR, Log10 M -6
  raw signal, dose-response (Figure S7a): 2547880 and 3067093
SR, Log10 M -6.5
  raw signal, dose-response (Figure S7a): 2848387 and 3116973
SR, Log10 M -7
  raw signal, dose-response (Figure S7a): 3165427 and 3131507
SR, Log10 M -7.5
  raw signal, dose-response (Figure S7a): 3036893 and 2296373
SR, Log10 M -8
  raw signal, dose-response (Figure S7a): 3222893 and 3197013
SUP-T1, Log10 M -4
  raw signal, dose-response (Figure S7a): 26587 and 37653
SUP-T1, Log10 M -5
  raw signal, dose-response (Figure S7a): 6935960 and 5931427
SUP-T1, Log10 M -5.5
  raw signal, dose-response (Figure S7a): 6473080 and 6695013
SUP-T1, Log10 M -6
  raw signal, dose-response (Figure S7a): 6511467 and 6816760
SUP-T1, Log10 M -6.5
  raw signal, dose-response (Figure S7a): 6737680 and 6611147
SUP-T1, Log10 M -7
  raw signal, dose-response (Figure S7a): 6237733 and 6274507
SUP-T1, Log10 M -7.5
  raw signal, dose-response (Figure S7a): 6362947 and 6848640
SUP-T1, Log10 M -8
  raw signal, dose-response (Figure S7a): 6336067 and 6341827
SUPT1, blood
  pIC50: 4,747
SW48, large_intestine
  pIC50: 4,646
SW480, large_intestine
  pIC50: 4,843
SW620, large_intestine
  pIC50: 4,698
SW948, large_intestine
  pIC50: 4,676
T24, urinary_tract
  pIC50: 4,833
T98G, central_nervous_system
  pIC50: 4,373
TT, thyroid
  pIC50: 4,558
U2OS, bone
  pIC50: 5,097
U87MG, central_nervous_system
  pIC50: 4,692
VAESBJ, soft_tissue
  pIC50: 4,638
